In patent publication US20260355199A1, “COMPOSITIONS AND METHODS FOR TREATING OR PREVENTING NONALCOHOLIC STEATOHEPATITIS (NASH), ANOREXIA, DEPRESSION, ENDOMETRIOSIS, AND OTHER DISEASES OR DISORDERS” (priority 2022, published 2026):
Entries after “also recorded” stand apart in the source; their conditions may differ.

Legend:
TET3 [1] = assay: TET3 protein in the ARC of mice (immunofluorescence); format: in vivo, mouse
Experimental: (§1) To test whether Bobcat339 affects TET3 protein expression in AgRP neurons, Agrp-IRES-Cre::LSL-Cas9-GFP mice with GFP expression specifically in AgRP neurons were intraperitoneally injected with vehicle or Bobcat339 at 2.5 mg/kg, followed by isolation of ARCs under fed conditions (9:00-11:00) two days later. This dose was chosen based on the dose response studies. TET2 expression was widespread but was negligible in AgRP neurons.
(§2) Bobcat339 powder (Sigma-Aldrich, SML2611) was freshly dissolved in DMSO (vehicle) at a concentration of 50 mg/mL and filtered through a 0.22 micron. It was further diluted with 1×PBS to a final concentration of 0.5 mg/mL before injections. Mice were injected intraperitoneally with Bobcat339 at 1 mg/kg, 2.5 mg/kg, or 4 mg/kg.
The immunofluorescence for brain slices was conducted using previous methods (18). In brief, postfixed sections were cut into 40-μm-thick sections, followed by 5 times washing. Then the sections were incubated in blocking solution for 20 minutes and incubated with anti-TET3 (dilution 1:2000; Millipore Sigma, ABE290), anti-TET2 (dilution 1:500; Proteintech, 21207-1-AP), anti-AGRP (dilution 1:400; H-003-57, Phoenix Pharmaceuticals), anti-NPY (dilution 1:800, Cell Signaling Technology, 11976S), anti-VGAT (dilution 1:200; Abcam, Ab23592), or anti-FOS (dilution 1:1000; Biosensis, R-1751-050) overnight at 4 °C. Negative controls were performed by omitting the respective primary antibodies. The next day, sections were washed 5 times and incubated in 0.4% Triton x-100 PBS with the secondary antibody donkey anti-Rabbit IgG Fluor 594 (dilution 1:500; A-21207, Invitrogen) for 2 h at RT. The sections were coverslipped and scoped using a Keyence BZ-X700 fluorescence microscope. The fluorescence signals from GFP in AgRP neurons were detected without immunostaining.

Tet3 mRNA = Tet3 mRNA in the ARC of mice; format: in vivo, mouse; settings: 2.5 mg/kg i.p., two days
Experimental: as §1, §2
Total RNAs were extracted from neuronal cells or homogenized hypothalamic arcuate nucleus tissue samples using PureLink RNA Mini Kit (Ambion, 12183025). cDNA was synthesized using PrimeScript RT Reagent Kit in a 20 μl reaction containing 0.5-1 μg of total RNA. Real-time quantitative PCR was performed in a 15 μl reaction containing 0.5-1 μl of cDNA using SsoAdvanced Universal SYBR Green Supermix in a Bio-Rad iCycler. Specificity was verified by melting curve analysis. The Ct values of each sample were used in the post-PCR data analysis. Gene expression levels were normalized against RPLP0.

TET3 [2] = assay: TET3 protein in human MDMs; format: cell-based; settings: 24 h
Experimental: For siRNA transfection in a 24-well plate scale of MDMs, NT siRNA or TET3 siRNA (4392420/s47239, Ambion) was mixed with 25 μL of OPTI-MEM by gentle pipetting. In parallel, 1.5 μL of Lipofectamine RNAiMAX was mixed with 25 μL of OPTI-MEM by gentle pipetting. Following 5 min of incubation at RT, the resulting 50 μl of transfection solution was added to each well of cells containing 450 μL of growth media.
Bobcat339 Treatment of Cultured Cells Bobcat339 powder (Sigma-Aldrich, SML2611) was freshly dissolved in DMSO at a concentration of 5 mM and filtered through a 0.22 micron. […]
For cultured MDMs, cells were primed with CM-Endo or TGF-β1 (PeproTech, 100-21) for 36-48 h (to increase TET3 expression) before Bobcat339 treatment.
Cells were homogenized in situ using a pipette tip in 2×SDS-sample buffer with 10% β-mercaptoethanol at RT followed by heating at 100 °C for 5 min with occasional vortexing. The samples were loaded onto a 4-15% gradient SDS gel (Bio-rad, 456-8086) (10 μL/well) and transferred to nitrocellulose membranes, followed by Western blot analysis. […]

Nc1nc(=O)n(-c2cccc(-c3ccccc3)c2)cc1Cl [Bobcat339, 4-Amino-1-[1,1′-biphenyl]-3-yl-5-chloro-2(1H)-pyrimidinone]
TET3-positive AgRP neurons (TET3 [1]; 2.5 mg/kg i.p., two days): a clear decrease in the number of TET3-positive AgRP neurons; also recorded: decreased TET3 protein in AgRP neurons; also recorded: inhibited TET3 expression in AgRP neurons
TET3 protein in non-AgRP cells (TET3 [1]; decrease limited to the tip regions of the ARC even at 4 mg/kg): decreased TET3 protein in non-AgRP cells
onset of TET3 decrease in AgRP neurons and neuron activation (TET3 [1]; following exposure to Bobcat339): as early as three days
Tet3 mRNA in the ARC (Tet3 mRNA): did not alter the mRNA abundance of Tet3; also recorded: no significant change
TET3 protein level (TET3 [2]; 10 μM): a decrease in TET3 expression; also recorded: decreased the level of TET3 protein
steady-state level of TET3 protein (TET3 [2]; 10 mM (so in the source)): a decrease in the steady-state level of TET3 protein
